Like-named read-outs stand apart in the source and are kept apart here.
What was measured:
[1] = tested on: A2780 cis (human cisplatin resistant ovarian carcinoma); assay: Cytotoxicity, fluorometric cell viability assay (resazurin), A2780 cis; assay type: cell-based; conditions: read-out: IC50 (μM) A2780 cis
Protocol: (§1) HeLa and CT-26 cell lines were cultured in DMEM media (Gibco) supplemented with 10% of fetal calf serum (Gibco). CT-26 LUC cell line was cultured in DMEM media (Gibco) supplemented with 10% of fetal calf serum (Gibco) and 1% Genticin. RPE-1 cell line was cultured in DMEM/F-12 media (Gibco) supplemented with 10% of fetal calf serum. […] The resistance of A2780 cis was maintained by cisplatin treatment (1 μM) for one week every month. […] U87 cell line was cultured in MEM media (Gibco) supplemented with 10% of fetal calf serum (Gibco) and 1% of non-essential amino acid mixture (Gibco). Cell lines were complemented with 100 U/ml penicillin-streptomycin mixture (Gibco) and maintained in humidified atmosphere at 37° C. and 5% of CO2.
(§2) Cytotoxicity of the tested Ru compounds according to the present invention was assessed by a fluorometric cell viability assay using Resazurin (ACROS Organics). […] After 24 h, cells were treated with increasing concentrations of the compounds. Compounds dilutions were prepared as follows: 2.5 mM stock in DMSO was further diluted to 100 μM with media and then filtrated. After 48 h incubation, medium was removed, and 100 μl of complete medium containing resazurin (0.2 mg/ml final concentration) was added. […] IC50 values were then calculated using GraphPad Prism software.

HeLa (human cervical) = assay: Cytotoxicity, fluorometric cell viability assay (resazurin), HeLa; assay type: cell-based; conditions: read-out: IC50 (μM) HeLa
Protocol: as §1, §2

[2] = tested on: A2780 (human ovarian carcinoma); assay: Cytotoxicity, fluorometric cell viability assay (resazurin), A2780; assay type: cell-based; conditions: read-out: IC50 (μM) A2780
Protocol: as §1, §2

[3] = tested on: A2780 ADR (human doxorubicin resistant ovarian carcinoma); assay: Cytotoxicity, fluorometric cell viability assay (resazurin), A2780 ADR; assay type: cell-based
Protocol: as §1, §2

[4] = tested on: CT-26 LUC (mouse colon adenocarcinoma stably expressing luciferase); assay: Cytotoxicity, fluorometric cell viability assay (resazurin), CT-26 LUC; assay type: cell-based; conditions: read-out: IC50 (μM) CT-26 luc
Protocol: as §1, §2

[5] = tested on: CT-26 (mouse colon adenocarcinoma); assay: Cytotoxicity, fluorometric cell viability assay (resazurin), CT-26; assay type: cell-based; conditions: read-out: IC50 (μM) CT-26
Protocol: as §1, §2

[6] = tested on: RPE-1 (normal retina pigmented epithelial); assay: Cytotoxicity, fluorometric cell viability assay (resazurin), RPE-1; assay type: cell-based; conditions: read-out: IC50 (μM) RPE-1
Protocol: as §1, §2

[7] = tested on: MRC-5 (normal lung fibroblasts); assay: Ruthenium cellular accumulation by ICP-MS, MRC5
Protocol: All the fractions (mitochondria, lysosomes and nucleus) were isolated from the same cellular sample for direct comparative purposes. The supernatant phases discarded during the isolation of nuclei, lysosomes and mitochondria procedures were collected and formed the “residual” fraction. An aliquot of crude lysate after homogenization, nuclear, mitochondrial (pellet lysed via freeze and thaw cycles followed by 20 minutes incubation in ultrasonic bath), lysosomal and residual fraction was each used for protein quantification using the Bradford method. The isolated samples were then lyophilized on an Alpha 2-4 LD plus (CHRIST). The resulting samples underwent chemical digestion with 10 mL of a 2% nitrohydrochloric acid solution for 24 h. The resulting suspensions were filtered on 0.20 μm non-pyrogenic sterile Filtropur filters (Sarstedt) and the obtained samples were injected in ICP-MS.
Ruthenium content of the samples was determined by means of a 7-step serial dilution in the range between 0 and 300 ppb in Ru (R>0.99) with a background equivalent concentration of BEC: 6.3 ppt and a detection limit of DL: 17 ppt. […] A solution of Indium (500 ppb) and Tungsten (500 ppb) was used as internal standard.

[8] = tested on: mitochondrial metabolism (oxidative phosphorylation) in CT-26 cell line; assay: Seahorse Mitostress test; assay type: cell-based, mouse; conditions: CT-26, 1 μM, 24 h incubation
Protocol: (§3) The preference of compound 1 to accumulate in the nucleus and mitochondria in HeLa cells inspired further studies on metabolic pathways that could be affected by the compound. For this purpose, Seahorse XF Analyzer was used. […] The effect on the other metabolic pathways, i.e. glycolysis and the possible metabolic modulation of the three primary fuel pathways, i.e. glucose, glutamine and fatty acid were then examined.
CT-26 cells were seeded in Seahorse XFe96 well plates at a density of 30,000 cells/well in 80 μL. […] After 24 h of incubation, the regular media was removed and the cells were washed thrice using bicarbonate and serum free DMEM, supplemented with glucose, 1.8 mg/mL; 1% glutamine and 1% sodium pyruvate and incubated in a non-CO2 incubator at 37° C. for 1 h. Mitostress assay was run using Oligomycin, 1 μM, FCCP 1 μM and mixture of Antimycin-A/Rotenone 1 μM each in ports A, B and C respectively using Seahorse XFe96 Extracellular Flux Analyzer.

[9] = Dose-finding study, maximum tolerated dose; conditions: healthy mice, i.p., weight loss limit 10% over 14 days
[10] = tested on: glycolysis in CT-26 cells; assay: Seahorse glycolytic stress test; assay type: cell-based, mouse; conditions: CT-26, 1 μM, 24 h incubation
Protocol: as §3
CT-26 cells were seeded in Seahorse XFe96 well plates at a density of 30,000 cells/well in 80 μL. […] After 24 h of incubation, the regular media was removed and the cells were washed thrice using bicarbonate, glucose and serum free DMEM, supplemented 1% glutamine and 1% sodium pyruvate and incubated in a non-CO2 incubator at 37° C. for an hour. Glycolytic stress test was run using glucose, 10 mM, Oligomycin, 1 μM and 2-Deoxyglucose, 50 mM in ports A, B and C respectively using Seahorse XFe96 Extracellular Flux Analyzer.

HeLa cells [11] = assay: Annexin V/PI assay (cell death mechanism); conditions: 10 μM
Text: For this experiment, Annexin V and PI staining method were utilised on HeLa cells.^15 Staurosporin, a known inducer of apoptosis, was used as a positive control.

HeLa cells [12] = assay: Ruthenium cellular uptake and subcellular distribution by ICP-MS, HeLa; assay type: cell-based, human; conditions: 5 μM
Protocol: All the treatments were set up at the same concentration for comparative purposes. The medium was then removed, the cells washed with PBS and trypsinized. […] The organelles were then isolated via differential centrifugation. To separate lysosomes, a Lysosome Isolation Kit (Cat. Nr: LYSISO1, Sigma Aldrich) as well as the manufacturer procedure with minor modification was used. Briefly, the collected pellets were redissolved in 2.0 ml of extraction buffer added with proteases cocktail (delivered with the kit) and incubated for 15 min on ice. The samples were then homogenized with a pre-chilled dounce homogenizer (7 ml, tight pestle A, 22 strokes) and centrifuged at 1000 g for 10 min at 4° C. […] These steps of the isolation procedure were monitored under phase contrast microscope on Menzel-Glaser coverslips (Olympus IX81 microscope).
The supernatant was transferred in a fresh tube and centrifuged at 14000 g for 30 min at 4° C. […] The intact lysosomal content was proofed with Neutral-Red Reagent (delivered in the kit) with dual-wavelength absorbance mode at 460 and 510 nm over a kinetic of 3 minutes in a Spectramax M5 microplate reader (Molecular Devices). […]
Ruthenium content of the samples was determined by means of a 7-step serial dilution in the range between 0 and 300 ppb in Ru (R>0.99) with a background equivalent concentration of BEC: 6.3 ppt and a detection limit of DL: 17 ppt. […]

[13] = tested on: fuel pathways (glucose, glutamine, fatty acid) in CT-26 cells; assay: Seahorse fuel flex assay; assay type: cell-based, mouse; conditions: CT-26, 1 μM, 24 h incubation
Protocol: as §3
CT-26 cells were seeded in Seahorse XFe96 well plates at a density of 30,000 cells/well in 80 μL. […] After 24 h of incubation, the regular media was removed and the cells were washed thrice using bicarbonate, and serum free DMEM, supplemented with 1.8 mg/mL glucose, 1% glutamine and 1% sodium pyruvate and incubated in a non-CO2 incubator at 37° C. for an hour. Fuel flex assay for the different fuel pathways viz. glucose, glutamine and fatty acid was studied by measuring the basal oxygen consumption rates and that after addition of the inhibitor of the target pathway in port A and a mixture of the inhibitors of the other two pathways in port B. This gave a measure of the dependency of the cells on a fuel pathway. To study the capacity of a certain fuel pathway, the sequence of addition of the inhibitors was reversed. In port A was added the mixture of inhibitors for the other pathways and in port B was added the inhibitor for the target pathway. […]

[14] = Homo sapiens, A2780cis, A2780 cis (cisplatin resistant), 48 h incubation
[15] = Homo sapiens, A2780, 48 h incubation
[16] = Homo sapiens, A2780 ADR, 48 h; read-out: IC50 (μM) A2780 ADR
[17] = Mus musculus, CT26, CT-26 luc, 48 h incubation
[18] = Mus musculus, CT26, CT-26, 48 h incubation
[19] = Homo sapiens, RPE-1 normal cells, 48 h incubation
[20] = A2780 cis (cisplatin resistant), 48 h incubation
[21] = A2780 ADR (doxorubicin resistant), 48 h incubation; read-out: IC50 (μM) A2780 ADR
[22] = RPE-1 normal cells, 48 h incubation

Row | Compound | IC50 [1, 14] [µM] | IC50 (HeLa (human cervical); Homo sapiens, 48 h incubation) [µM] | IC50 [2, 15] [µM] | IC50 [3, 16] [µM] | IC50 [4, 17] [µM] | IC50 [5, 18] [µM] | IC50 [6, 19] [µM] | also measured
1 | COc1cccc(O)c1O [3-methoxycatechol] | 36.5 ± 1.94 | 56.2 ± 4.18 | 18.7 ± 1.17 | 30.1 ± 1.35 | 36.4 ± 6.28 | 45.7 ± 4.21 | > 100 | 
2 | Cc1cccc(O)c1O [3-methylcatechol] | 14.7 ± 0.69 | > 100 | 9.99 ± 1.26 | 2.71 ± 0.82 | 12.1 ± 1.4 | 17.5 ± 0.73 | > 100 | 
3 | Cc1ccc(O)c(O)c1 [4-methylcatechol] | 34.6 ± 1.49 | > 100 | 15.2 ± 1 | 29.3 ± 1.96 | 33.3 ± 3.4 | 34.4 ± 1.41 | > 100 | 
4 | O=[N+]([O-])c1ccc(O)c(O)c1 [4-nitrocatechol] | > 100 | > 100 | 30.9 ± 2.05 | 61.5 ± 3.63 | 15.3 ± 1 | 17.5 ± 1.02 | 45 ± 19 | 
5 | CC(C)(C)c1ccc(O)c(O)c1 [4-tertbutylcatechol] | 14.6 ± 0.81 | 93.1 ± 9.8 | 9.14 ± 0.7 | 12.9 ± 1.2 | 9.72 ± 0.67 | 9.94 ± 0.63 | 55.1 ± 4.64 | 
6 | COc1cccc2c1C(=O)c1c(O)c3c(c(O)c1C2=O)C[C@@](O)(C(=O)CO)C[C@@H]3O[C@H]1C[C@H](N)[C@H](O)[C@H](C)O1 [Doxorubicin] | 0.54 ± 0.04 | 0.34 ± 0.02 | 0.19 ± 0.03 | 5.94 ± 0.58 |  | 0.082 ± 0.003 | 0.89 ± 0.17 | 
7 | Cc1occc(=O)c1O [Maltol, 3-Hydroxy-2-methyl-4H-pyran-4-one] | > 100 | 74 ± 14.6 | > 100 | > 100 | > 100 | > 100 | > 100 | 
8 | [Cl-].[Cl-].[Ru+2].c1ccc(-c2ccnc3c2ccc2c(-c4ccccc4)ccnc23)cc1.c1ccc(-c2ccnc3c2ccc2c(-c4ccccc4)ccnc23)cc1 [Ru(DIP)2Cl2] |  |  |  |  |  |  |  | IC50 [1, 20]: 6.36 ± 0.57 µM; IC50 (HeLa (human cervical); 48 h incubation): 15 ± 0.4 µM; IC50 ([2]; A2780, 48 h incubation): 4.69 ± 0.14 µM; IC50 [3, 21]: 78.3 ± 4.9 µM; IC50 ([4]; CT-26 luc, 48 h incubation): 6.65 ± 0.5 µM; IC50 ([5]; CT-26, 48 h incubation): 9.2 ± 1.22 µM; IC50 [6, 22]: 3.13 ± 0.07 µM
9 | Oc1c(O)c(Br)c(Br)c(Br)c1Br [Tetrabromocatechol] |  |  |  |  |  |  |  | IC50 ([1]; Homo sapiens, A2780cis, 48 h): 13.6 ± 0.88 µM; IC50 (HeLa (human cervical); Homo sapiens, 48 h): 29.9 ± 1.6 µM; IC50 ([2]; Homo sapiens, A2780, 48 h): 8.75 ± 0.2 µM; IC50 ([3]; Homo sapiens, A2780 ADR, 48 h, read-out: IC50 (μM) A2780 ADR): 14.4 ± 1.18 µM; IC50 ([4]; Mus musculus, CT26, 48 h): 3.8 ± 0.34 µM; IC50 ([5]; Mus musculus, CT26, 48 h): 5.53 ± 0.37 µM; IC50 ([6]; Homo sapiens, RPE-1, 48 h): 13.5 ± 1.7 µM
10 | Oc1ccccc1O [catechol] | 56 ± 9.46 | > 100 | 22.4 ± 5.83 | > 100 | 11.5 ± 0.4 | 16 | > 100 | 
11 | Ru(DIP)2(4-Nitrocat) [Compound 8] |  |  |  |  |  |  |  | IC50 [1, 20]: 16.4 ± 2.04 µM; IC50 (HeLa (human cervical); 48 h incubation): 10 ± 0.44 µM; IC50 ([2]; A2780, 48 h incubation): 12.4 ± 0.8 µM; IC50 [3, 21]: 18.6 ± 2.02 µM; IC50 ([4]; CT-26 luc, 48 h incubation): 9.01 ± 0.19 µM; IC50 ([5]; CT-26, 48 h incubation): 7.61 ± 0.11 µM; IC50 [6, 22]: 16.6 ± 0.98 µM
12 | [Ru(DIP)2(Sq)](PF6) [Compound 1] |  |  |  |  |  |  |  | compound taken up by healthy cells [7]: less than 25%; ATP production [8]: inhibited; mitochondrial respiration [8]: severely impaired; maximum tolerated dose (MTD) [9]: 15 mg/kg of body weight; glycolysis of the cells [10]: not affected; induction of apoptosis/necrosis (HeLa cells [11]; 30 min after treatment): induces apoptosis; type of cell death (HeLa cells [11]; 4 h or 24 h incubation): apoptosis as a main type of the cell death; subcellular accumulation of ruthenium (HeLa cells [12]; 2 h, fractionated): preferential accumulation inside the nucleus; cellular uptake (internalization) (HeLa cells [12]; after 2 h): Near complete internalization; effect on the 3 primary fuel pathways [13]: no direct effect
13 | [Ru(DIP)2(Tetrabromocat)] [Compound 5] |  |  |  |  |  |  |  | IC50 [1, 20]: 17.2 ± 1.4 µM; IC50 (HeLa (human cervical); 48 h incubation): 10.5 ± 0.25 µM; IC50 ([2]; A2780, 48 h incubation): 10.2 ± 0.14 µM; IC50 [3, 21]: 15 ± 0.75 µM; IC50 ([4]; CT-26 luc, 48 h incubation): 11.6 ± 0.7 µM; IC50 ([5]; CT-26, 48 h incubation): 10.5 ± 0.5 µM; IC50 [6, 22]: 23.2 ± 2.5 µM

From patent US20220242894A1, “Ruthenium (II) Complexes and Their Use as AntiCancer Agents” (Paris Sciences et Lettres, priority 2019, published 2022)
